This test concerns the target T1, 5-HT1A (Homo sapiens, UniProt P08908).
T1 construct: expressed in transfected cells; host or cells: HEK-293 cells
T1 sequence (P08908 1-422): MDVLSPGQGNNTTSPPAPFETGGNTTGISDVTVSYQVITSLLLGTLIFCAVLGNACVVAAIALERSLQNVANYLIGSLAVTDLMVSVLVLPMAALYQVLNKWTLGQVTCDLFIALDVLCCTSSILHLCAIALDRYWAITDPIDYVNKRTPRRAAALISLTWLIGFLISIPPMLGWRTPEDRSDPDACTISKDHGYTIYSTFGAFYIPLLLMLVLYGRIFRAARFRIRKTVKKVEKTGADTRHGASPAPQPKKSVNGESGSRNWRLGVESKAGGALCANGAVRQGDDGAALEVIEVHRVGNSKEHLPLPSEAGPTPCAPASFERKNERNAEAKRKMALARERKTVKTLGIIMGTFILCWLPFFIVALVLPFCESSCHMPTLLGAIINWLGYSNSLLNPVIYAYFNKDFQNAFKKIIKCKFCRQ
The experiment in a line: In vitro radioligand binding assay, 5-HT1A, [3H]8-OH-DPAT. Further details: concentration or dose not given beside the values. The following applies: human recombinant (HEK-293 cells). The method, then: Certain compounds were tested by in vitro binding assays using standard procedures. […] These receptors and assays are well known to those skilled in the art, as exemplified by the following: Abramovitz, M. et al. (2000), Biochem. Biophys. Acta., 1483: 285-293 (EP4, IP (PGI2)); Aharony, D. et al. (1993), Mol. Pharmacol., 44: 356-363 (NK2); Ardati, A. et al. (1997), Mol. Pharmacol., 51: 816-824 (NOP (ORL1)); Bignon, E. et al. (1999), J. Pharmacol. Exp. Ther. 289: 742-751 (CCK1 (CCKA)); Bloomquist, B. T. et al. (1998), Biochem. Biophys. Res. Commun., 243: 474-479 (GAL2); Brockhaus, M. et al. (1990), Proc. Natl. Acad. Sci. U.S.A., 87: 3127-3131 (TNF-α); Brown, G. B. (1986), J. Neurosci., 6: 2064-2070 (Na+ channel (site 2)); Buchan, K. W. et al. (1994), Brit. J. Pharmacol., 112: 1251-1257 (ETA); Cesura, A. M. et al. (1990), Mol. Pharmacol., 37: 358-366 (MAO-A); Choi, D. S. et al. (1994), FEBS Lett., 352: 393-399 (5-HT2B); Clark, A. F. et al. (1996), Invest. Ophtalmol. Vis. Sci., 37: 805-813 (GR); Couvineau, A. et al. (1985), Biochem. J., 231: 139-143 (VPAC1 (VIP1)); Dorje, F. et al. (1991), J. Pharmacol. Exp. Ther., 256: 727-733 (M1, M2, M3, M4); Ferry, G. et al. (2001), Eur. J. Pharmacol., 417: 77-89 (PPARγ); Fuchs, S. et al. (2001), Mol. Med., 7: 115-124 (ETB); Fuhlendorff, J. et al. (1990), Proc. Natl. Acad. Sci. U.S.A., 87: 182-186 (Y2); Ganapathy M E. et al. (1999), J. Pharmacol. Exp. Ther., 289: 251-260 (sigma (non-selective)); Gopalakrishnan, M. et al. (1996), J. Pharmacol. Exp. Ther., 276: 289-297 (N neuronal α4β2); Greengrass, P. and Bremner, R. (1979), Eur. J. Pharmacol., 55: 323-326 (α1 (non-selective)); Grandy, D. K. et al. (1989), Proc. Natl. Acad. Sci. U.S.A., 86: 9762-9766 (D25); Guard, S. et al. (1993), Eur. J. Pharmacol., 240:177-184 (BB (non-selective)); Heuillet, E. et al. (1993), J. Neurochem., 60: 868-876 (NK1, P2X); Hope, A. G. et al. (1996), Brit. J. Pharmacol., 118: 1237-1245 (5-HT3); Hoyer, D. et al. (1985), Eur. J. Pharmacol., 118: 1-12 (5-HT1B); Hugues, M. et al. (1982), J. Biol. Chem., 257: 2762-2769 (5-HT2A, SKCa channel); Joseph, S. S. et al. (2004), Naun.-Sch. Arch. Pharm., 369: 525-532 (β2); Le, M. T. et al. (2005), Eur. J. Pharmacol., 513: 35-45 (AT1); Le Fur, G. et al. (1983), Life Sci., 33: 449-457) (BZD (peripheral); Lee, Y. M. et al. (1993), J. Biol. Chem., 268: 8164-8169 (CCK2 (CCKB)); Leurs, R. et al. (1994), Brit. J. Pharmacol., 112: 847-854 (H2); Levin, M. C. et al. (2002), J. Biol. Chem., 277: 30429-30435 (11); Lewin, A. H. et al. (1989), Mol. Pharmacol., 35: 189-194 (Cl− channel (GABA-gated)); Lukas, R. J. (1986), J. Neurochem., 46: 1936-1941 (N muscle-type); Luthin, D. R. et al. (1995), Mol. Pharmacol., 47: 307-313; (A2A); Mackenzie, R. G. et al. (1994), Eur. J. Pharmacol., 266: 79-85 (D3); Mulheron, J. G. et al. (1994), J. Biol. Chem., 269: 12954-12962 (5-HT1A); Meng, F. et al. (1993), Proc. Natl. Acad. Sci. U.S.A., 90: 9954-9958 (κ (KOP)); Monsma, F. J. et al. (1993), Mol. Pharmacol., 43: 320-327 (5-HT6); Neote, K. et al. (1993), Cell, 72: 415-425 (CCR1); Pacholczyk, T. et al. (1991), Nature, 350: 350-354 (sst (non-selective, norepinephrine transporter)); Peralta, E. G. et al. (1987), Embo. J., 6: 3923-3929 (M3); Pristupa, Z. B. et al. (1994), Mol. Pharmacol., 45: 125-135 (dopamine transporter); Pruneau, D. et al. (1998), Brit. J. Pharmacol., 125: 365-372 (B2); Rees, S. et al. (1994), FEBS Lett., 355: 242-246 (5-HT5a); Reynolds, I. J. et al. (1986), J. Pharmacol. Exp. Ther., 237: 731-738 (Ca2+ channel (L, verapamil site)); Rinaldi-Carmona, M. et al. (1996), J. Pharmacol. Exp. Ther., 278: 871-878 (CB1); Salvatore, C. A. et al. (1993), Proc. Natl. Acad. Sci. U.S.A., 90: 10365-10369 (A3); Sarau, H. M. et al. (1997), J. Pharmacol. Exp. Ther., 281: 1303-1311 (NK3); Schioth, H. B. et al. (1997), Neuropeptides, 31: 565-571 (MC4); Sharples, C. […]
`Fc1cccc2c1[C@H]([C@@H]1CCN1)OCC2` [Compound I-83, (S)-2-((R)-8-fluoroisochroman-1-yl)azetidine]: the “5HT1a percent inhibition of specific binding” value (from here on “5HT1a percent inhibition”) is 87%.

With `Fc1cccc2c1[C@H]([C@@H]1CCCN1)OCC2` [Compound I-1, (S)-2-((R)-8-fluoroisochroman-1-yl)pyrrolidine], the “5HT1a percent inhibition” value was 79%.

For the molecule `Fc1ccc2c(c1)CCO[C@H]2[C@@H]1CCN1` [Compound I-90, (S)-2-((R)-6-fluoroisochroman-1-yl)azetidine], the “5HT1a percent inhibition” value turned out to be 64%.

As to `Fc1ccc2c(c1)CCO[C@H]2[C@@H]1CCCN1` [Compound I-9, (S)-2-((R)-6-fluoroisochroman-1-yl)pyrrolidine], the “5HT1a percent inhibition” value came out at 77%.

Regarding `Clc1ccc2c(c1)[C@H]([C@@H]1CCCN1)OCC2` [Compound I-29, (S)-2-((R)-7-chloroisochroman-1-yl)pyrrolidine], the “5HT1a percent inhibition” value came to 71%.

In the case of `Fc1ccc2c(c1)[C@H]([C@@H]1CCCN1)OCC2` [Compound I-5, (2S)-2-((R)-7-fluoroisochroman-1-yl)pyrrolidine], the “5HT1a percent inhibition” value came to 52%.

Source of the values: US10336732B2, “1-heterocyclyl isochromanyl compounds and analogs for treating CNS disorders” (Sunovion Pharmaceuticals Inc., priority 2015, dated 2019).
